Experiments:
[1] = system: T98G; conditions: cited from earlier work
[2] = system: U87; conditions: cited from earlier work
[3] = system: human glioblastoma cell line U251; assay: ATCC MTT Cell Proliferation Assay, U251; format: cell-based; conditions: U251, 72 hours treatment
Experimental: Tris(8-quinolinolato)gallium(III) and temozolomide were tested in human glioblastoma cell line U251 (which is resistant to BCNU, See Beljanski et al., Anticancer Res., 13(6A):2301-8 (1993)). Specifically, ATCC's MTT Cell Proliferation Assay® was performed using glioblastoma cell line U251. Stock cultures were allowed to grow to 70-80% confluence for this study. The anti-proliferative activity of tris(8-quinolinolato)gallium(III) or temozolomide against the cell line was evaluated in vitro using the ATCC's MTT Cell Proliferation Assay (Catalog No. 30-1010K). Cultures were maintained in a 37° C. humidified 5% CO2/95% air atmosphere. The cells were treated with tris(8-quinolinolato)gallium(III) or temozolomide at 1,000 μM, or a series of 4x dilutions thereof (250 μM, 62.5 μM, etc.). 100 μl of medium was removed from each well at 72 hours post-treatment and 10 μl MTT reagent was added to each well. The plates were incubated at 37° C. for 4 hours and then 100 μl of detergent was added. The plates were left overnight at room temperature in the dark and was read on a plate reader using SoftMax® Pro (version 5.2, Molecular Devices).
The absorbance data was analyzed as follows: Absorbance values were converted to Percent of Control and plotted against test agent concentrations for IC50 calculations using SoftMax® Pro (version 5.2, Molecular Devices). The plate blank signal average was subtracted from all wells prior to calculating the Percent of Control. Percent of Control values were calculated by dividing the absorbance values for each test well by the No Drug Control average (column 11 values; cells +vehicle control) and multiplying by 100. Plots of Compound Concentration versus Percent of Control were analyzed using the 4-parameter equation to obtain IC50 values and other parameters that describe the sigmoidal dose response curve.
The IC50 value for the test agent was estimated by curve-fitting the data using the following four parameter-logistic equation: […]

[4] = system: U373; conditions: cited from earlier work
[5] = system: T98G; assay: MTT assay, glioblastoma cell line T98G; format: cell-based
Experimental: (§1) To test the activities of tris(8-quinolinolato)gallium(III) (“drug”), MTT assays were performed using glioblastoma cell lines. Cells were plated (2×10^3 cells in 100 μl/well) in 96-well plates and allowed to recover for 24 hours. The drug was added in another 100 μl growth medium and incubated with cultured cells for 3 hours before the cell culture medium was replaced to remove the drug. Cell death was measured 72 hours after the initial incubation by MTT assay following the manufacturer's recommendations (EZ4U, Biomedica, Vienna, Austria).

[6] = system: glioma cell line U87; assay: 3-dimentional tumor model (HuBiogel), MTT assay and Calcein AM live-cell staining; format: cell-based
Experimental: The compound tris(8-quinolinolato)gallium(III) was tested in a 3-dimentional tumor model derived from glioma cell line U87. Specifically, cells were trypsinized, washed, counted by trypan blue exclusion. Tumor beads were then prepared by mixing 20,000 cells/10 μl of HuBiogel (4 mg/mL) (See U.S. patent application Ser. No. 10/546,506, which is incorporated herein by reference). The 3-D tumor beads were cultivated for 72 hours in multi-well plates with complete media (10% FBS) in a 37° C. incubator +5% CO2. Mini-tumors were treated with various concentrations of the test compound tris(8-quinolinolato)gallium(III) in media (final 0.2-0.3% DMSO) or control (DMSO). Repeated drug treatment was done by removing the culture media and replacing with fresh media with drug compound or DMSO. On Day 3, MTT assay and live-cell staining with Calcein AM were performed (5 beads/assay set).
Statistical analysis of data sets (Average, T-test, GI-50) was performed using MS-Excel program. The average GI-50 (the drug concentration required for growth inhibition at 50%) is 0.94 μM.

[7] = system: ACHU; assay: MTT assay, glioblastoma cell line ACHU; format: cell-based; conditions: drug incubated 3 hours, MTT 72 hours after initial incubation
Experimental: as §1

[8] = system: U373; assay: MTT assay, glioblastoma cell line U373; format: cell-based; conditions: drug incubated 3 hours, MTT 72 hours after initial incubation
Experimental: as §1

[9] = system: U87; assay: MTT assay, glioblastoma cell line U87; format: cell-based
Experimental: as §1

What does the source list for `O=NN(CCCl)C(=O)NCCCl` [BCNU]?
BCNU (% cytostasis with 50 μg/ml BCNU) [1]: 37.5 ± 8.6%; BCNU (% cytostasis with 50 μg/ml BCNU) [2]: 18.5 ± 8.2%; IC50 [3]: 53700 nM; BCNU (% cytostasis with 50 μg/ml BCNU) [4]: 30.4 ± 8.6%

For `Cn1nnc2c(C(N)=O)ncn2c1=O` [temozolomide], which IC50 ([3]; Homo sapiens, U-251) is on record?
Its IC50 is 283000 nM.

For `[Ga+3].[O-]c1cccc2cccnc12.[O-]c1cccc2cccnc12.[O-]c1cccc2cccnc12` [tris(8-quinolinolato)gallium(III)], which IC50 ([5]; drug incubated 3 hours, MTT 72 hours after initial incubation) is on record?
The IC50 was 2000 nM.

What about the “activity in cells” value ([5]; resistant to temozolomide) of the same molecule?
Its value is “active”.

And the IC50 [3]?
The IC50 was 4040 nM.

What about the GI50 ([6]; U87 3-D tumor beads in HuBiogel, MTT on Day 3, read-out: average GI-50 (drug concentration required for growth inhibition at 50%)) of the same molecule?
Its GI50 is 940 nM.

What about the “tumor killing in live-cell staining/image analysis” value ([6]; U87 3-D tumor beads, Calcein AM, Day 3) of the same molecule?
The value was “dose-dependent tumor killing”.

What about the “tumor proliferation activity” value ([6]; U87 3-D tumor beads, MTT, Day 3) of the same molecule?
Its value is “significantly inhibited”.

And the IC50 [7]?
Its IC50 is 300 nM.

And the IC50 [8]?
The IC50 was 2500 nM.

What about the “activity against cell line” value ([9]; U87, relatively resistant to BCNU) of the same molecule?
The value was “active”.

What about the IC50 ([9]; U87, drug incubated 3 hours, MTT 72 hours after initial incubation) of the same molecule?
The IC50 was 940 nM.
